In article PMC7290441 (Viruses, 2020):
Counter-ions that a name gives are not always drawn. Like-named read-outs stand apart in the source and are kept apart here.

Tests used:
[1] = test system: A/Puerto Rico/8/1934 (H1N1)
[2] = test system: A/Hong Kong/8/1968 (H3N2)
[3] = test system: A/California/7/2009 (H1N1)
[4] = test system: A/Brisbane/59/2007 (H1N1)
[5] = test system: A/Puerto Rico/8/1934 (H1N1); experiment: microbe, parasite or virus in culture; settings: Influenza A virus, H1N1, MDCK, 72 h, read-out: EC50 against A/Puerto Rico/8/1934 (H1N1)
[6] = test system: A/Hong Kong/8/1968 (H3N2); experiment: microbe, parasite or virus in culture; settings: Influenza A virus, H3N2, MDCK, 72 h, read-out: EC50 against A/Hong Kong/8/1968 (H3N2)
B/Lee/40 [7] = experiment: microbe, parasite or virus in culture; settings: Influenza B virus, MDCK, 72 h, read-out: EC50 against B/Lee/40
[8] = test system: A/California/7/2009 (H1N1); experiment: microbe, parasite or virus in culture; settings: Influenza A virus, H1N1, MDCK, 72 h, read-out: EC50 against A/California/7/2009 (H1N1)
[9] = test system: A/Brisbane/59/2007 (H1N1); experiment: microbe, parasite or virus in culture; settings: Influenza A virus, H1N1, MDCK, 72 h, read-out: EC50 against A/Brisbane/59/2007 (H1N1)
A/Seoul/11/1988 (H3N2) [10] = experiment: microbe, parasite or virus in culture; settings: Influenza A virus, H3N2, MDCK, 72 h, read-out: EC50 against A/Seoul/11/1988 (H3N2)
A/Perth/16/2009 (H3N2) [11] = experiment: microbe, parasite or virus in culture; settings: Influenza A virus, H3N2, MDCK, 72 h, read-out: EC50 against A/Perth/16/2009 (H3N2)
[12] = test system: A/Brisbane/10/2007 (H3N2); experiment: microbe, parasite or virus in culture; settings: Influenza A virus, H3N2, MDCK, 72 h, read-out: EC50 against A/Brisbane/10/2007 (H3N2)
[13] = test system: A/Victoria/361/2011-like (H3N2); experiment: microbe, parasite or virus in culture; settings: Influenza A virus, H3N2, MDCK, 72 h, read-out: EC50 against A/Victoria/361/2011-like (H3N2)
B/Brisbane/60/2008 [14] = experiment: microbe, parasite or virus in culture; settings: Influenza B virus, MDCK, 72 h, read-out: EC50 against B/Brisbane/60/2008
[15] = Cytotoxicity to mock-infected MDCK cells (MTT); settings: dog
[16] = test system: PR8 virus (viral proteins NP, HA, M1); type: cell-based, influenza A virus
B/Lee/40 [17] = test system: B/Lee/40
A/Seoul/11/1988 (H3N2) [18] = test system: A/Seoul/11/1988 (H3N2)
A/Perth/16/2009 (H3N2) [19] = test system: A/Perth/16/2009 (H3N2)
[20] = test system: A/Brisbane/10/2007 (H3N2)
[21] = test system: A/Victoria/361/2011-like (H3N2)
B/Brisbane/60/2008 [22] = test system: B/Brisbane/60/2008
in vitro = settings: dog

## CC(C(O)c1ccc(O)cc1)N1CCC(Cc2ccccc2)CC1 (stereo not shown) [Ifenprodil, ifenprodil]
[1]; MDCK cells
  S.I. (CC50/EC50), A/Puerto Rico/8/1934 (H1N1): (74.0)
[2]
  S.I. (CC50/EC50), A/Hong Kong/8/1968 (H3N2): (29.0)
[3]; MDCK cells
  S.I. (CC50/EC50), A/California/7/2009 (H1N1): (465.0)
[4]; MDCK cells
  S.I. (CC50/EC50), A/Brisbane/59/2007 (H1N1): (96.7)
[5]
  EC50: 6.6 ± 0.4 µM
[6]
  EC50: 16.9 ± 3 µM
B/Lee/40 [7]
  EC50: > 100 µM
[8]
  EC50: 1.1 ± 0.1 µM
[9]
  EC50: 5.1 ± 0.3 µM
A/Seoul/11/1988 (H3N2) [10]
  EC50: 37.9 ± 7.7 µM
A/Perth/16/2009 (H3N2) [11]
  EC50: > 100 µM
[12]
  EC50: > 100 µM
[13]
  EC50: > 100 µM
B/Brisbane/60/2008 [14]
  EC50: > 100 µM
[15]
  CC50 at 3 days: 488.2 ± 0.5 µM

## NC12CC3CC(CC(C3)C1)C2 [AMT, amantadine hydrochloride]
[2]
  S.I. (CC50/EC50), A/Hong Kong/8/1968 (H3N2): (>1200)
[4]; MDCK cells
  S.I. (CC50/EC50), A/Brisbane/59/2007 (H1N1): (>750)
[5]
  EC50: > 100 µM
[6]
  EC50: 0.8 ± 0.1 µM
B/Lee/40 [7]
  EC50: > 100 µM
[8]
  EC50: > 100 µM
[9]
  EC50: 1.2 ± 0.4 µM
A/Seoul/11/1988 (H3N2) [10]
  EC50: 0.3 ± 0.1 µM
A/Perth/16/2009 (H3N2) [11]
  EC50: > 100 µM
[12]
  EC50: > 100 µM
[13]
  EC50: > 100 µM
B/Brisbane/60/2008 [14]
  EC50: > 100 µM
[15]
  CC50 at 3 days: > 900 µM

## NC(=O)c1ncn([C@@H]2O[C@H](CO)[C@@H](O)[C@H]2O)n1 [RBV, ribavirin]
[16]
  viral proteins NP, HA and M1 (western blot): not detected
[1]
  S.I. (CC50/EC50), A/Puerto Rico/8/1934 (H1N1): (>48.9)
[2]
  S.I. (CC50/EC50), A/Hong Kong/8/1968 (H3N2): (>57.5)
B/Lee/40 [17]
  S.I. (CC50/EC50), B/Lee/40: (>65.5)
[3]
  S.I. (CC50/EC50), A/California/7/2009 (H1N1): (>17.2)
[4]
  S.I. (CC50/EC50), A/Brisbane/59/2007 (H1N1): (>37.3)
A/Seoul/11/1988 (H3N2) [18]
  S.I. (CC50/EC50), A/Seoul/11/1988 (H3N2): (>52.3)
A/Perth/16/2009 (H3N2) [19]
  S.I. (CC50/EC50), A/Perth/16/2009 (H3N2): (>26.6)
[20]
  S.I. (CC50/EC50), A/Brisbane/10/2007 (H3N2): (>71.4)
[21]
  S.I. (CC50/EC50), A/Victoria/361/2011-like (H3N2): (>16.4)
B/Brisbane/60/2008 [22]
  S.I. (CC50/EC50), B/Brisbane/60/2008: (>35.2)
[5]
  EC50: 18.4 ± 3.4 µM
[6]
  EC50: 15.7 ± 2.7 µM
B/Lee/40 [7]
  EC50: 13.8 ± 0.2 µM
[8]
  EC50: 52.5 ± 1.5 µM
[9]
  EC50: 24.1 ± 0.5 µM
A/Seoul/11/1988 (H3N2) [10]
  EC50: 10.5 ± 4.2 µM
A/Perth/16/2009 (H3N2) [11]
  EC50: 33.8 ± 11.6 µM
[12]
  EC50: 12.6 ± 6.4 µM
[13]
  EC50: 33.4 ± 8.8 µM
B/Brisbane/60/2008 [14]
  EC50: 25.6 ± 0.3 µM
[15]
  CC50 at 3 days: > 900 µM

## CC(NCCc1ccc(O)cc1)C(O)c1ccc(O)cc1 (stereo not shown) [Ritodrine, ritodrine]
[5]
  EC50: > 100 µM
[6]
  EC50: > 100 µM
B/Lee/40 [7]
  EC50: > 100 µM
[15]
  CC50 at 3 days: > 900 µM

## CC(Cc1ccc(O)cc1)NCC(O)c1cc(O)cc(O)c1 (stereo not shown) [Fenoterol, fenoterol]
In vitro
  CC50: > 900 µM
[5]
  EC50: > 100 µM
[6]
  EC50: > 100 µM
B/Lee/40 [7]
  EC50: > 100 µM
